# Legend:
# TXK = target: T1, TXK (Homo sapiens, UniProt P42681); experiment: Biochemical kinase assay (Reaction Biology); conditions: 10 μM ATP
# T1 construct: purchased Reaction Biology Corporation
# IRR = target: T2, IRR (Homo sapiens, UniProt P14616); experiment: Biochemical kinase assay (Reaction Biology); conditions: 10 μM ATP
# T2 construct: purchased Reaction Biology Corporation (contract assay)
# BTK = target: T3, BTK (Homo sapiens, UniProt Q06187); experiment: Biochemical kinase assay (Reaction Biology); conditions: 10 μM ATP
# T3 construct: purchased Reaction Biology Corporation (contract assay)
# T3 sequence (Q06187 whole entry): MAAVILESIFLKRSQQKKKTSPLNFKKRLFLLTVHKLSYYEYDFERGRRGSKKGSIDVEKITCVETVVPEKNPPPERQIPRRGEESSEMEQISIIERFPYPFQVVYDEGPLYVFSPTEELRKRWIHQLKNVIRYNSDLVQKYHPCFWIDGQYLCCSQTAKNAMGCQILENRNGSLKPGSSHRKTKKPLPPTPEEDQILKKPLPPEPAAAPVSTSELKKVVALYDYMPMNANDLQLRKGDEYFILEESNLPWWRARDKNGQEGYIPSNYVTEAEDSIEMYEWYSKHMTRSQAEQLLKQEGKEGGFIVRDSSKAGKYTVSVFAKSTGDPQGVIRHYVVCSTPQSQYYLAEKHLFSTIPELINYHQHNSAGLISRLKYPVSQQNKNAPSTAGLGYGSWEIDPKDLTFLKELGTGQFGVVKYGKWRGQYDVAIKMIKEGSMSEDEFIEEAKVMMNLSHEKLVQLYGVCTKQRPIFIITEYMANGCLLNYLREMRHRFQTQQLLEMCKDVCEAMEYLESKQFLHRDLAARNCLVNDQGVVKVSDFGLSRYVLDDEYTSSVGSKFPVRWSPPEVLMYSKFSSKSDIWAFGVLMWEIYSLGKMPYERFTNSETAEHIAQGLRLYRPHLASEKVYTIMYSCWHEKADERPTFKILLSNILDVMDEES
# BLK = target: T4, BLK (Homo sapiens, UniProt P51451); experiment: Biochemical kinase assay (Reaction Biology); conditions: 10 μM ATP
# T4 construct: purchased Reaction Biology Corporation (contract assay)
# T4 sequence (P51451 whole entry): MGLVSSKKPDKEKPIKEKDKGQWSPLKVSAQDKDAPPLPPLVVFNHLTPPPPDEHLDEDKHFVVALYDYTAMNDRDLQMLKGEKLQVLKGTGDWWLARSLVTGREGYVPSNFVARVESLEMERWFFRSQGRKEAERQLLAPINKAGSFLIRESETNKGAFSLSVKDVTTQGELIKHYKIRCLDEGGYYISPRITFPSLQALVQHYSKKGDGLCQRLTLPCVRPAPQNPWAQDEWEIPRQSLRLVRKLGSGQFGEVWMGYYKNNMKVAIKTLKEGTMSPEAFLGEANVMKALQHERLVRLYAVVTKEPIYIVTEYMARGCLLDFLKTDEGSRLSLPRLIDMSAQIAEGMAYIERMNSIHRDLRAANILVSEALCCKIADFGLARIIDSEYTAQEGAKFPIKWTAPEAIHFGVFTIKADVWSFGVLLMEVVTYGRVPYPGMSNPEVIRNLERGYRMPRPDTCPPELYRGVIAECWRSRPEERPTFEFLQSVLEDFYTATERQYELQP
# HCC78 cell line = experiment: Cell proliferation assay (CellTiter-Glo); format: cell-based; conditions: Homo sapiens, 72 hours, SLC34A2-ROS1 fusion gene
# [1] = system: Ba/F3 EML4-ALK L1196M cell line; experiment: Cell proliferation assay (CellTiter-Glo); format: cell-based; conditions: Mus musculus, 72 hours
# STAT5 = experiment: Immunoblotting cellular phosphorylation assay, SET-2 cells (JAK2 V617F); format: cell-based; conditions: Homo sapiens, SET-2, 4 h, 4 hours treatment, read-out: STAT5 phosphorylation of SET-2 cell line IC50
# Method: NSCLC cell line H2228 (harboring endogenous EML4-ALK fusion gene), HCC78 cells (harboring endogenous SLC34A2-ROS1 fusion gene), Karpas-299 cells (harboring endogenous NPM-ALK fusion gene) or SET-2 (harboring endogenous JAK2V617F activating mutation) were cultured in RPMI medium, and KM12 (harboring endogenous TPM3-TRKA fusion gene) cell line was cultured in DMEM medium, both supplemented with 10% fetal bovine serum and 100 U/mL of penicillin/streptomycin. Ba/F3 and NIH3T3 cells stably expressing ALK or ROS1 (WT or mutant) were culture as mentioned above. […] Protein lysates (approximately 20 μg) was resolved on 4-12% Bolt Bis-Tris precasted gels with MES running buffer (Life Technologies), transferred to nitrocellulose membranes using Trans-Blot Turbo Transfer System (Bio-Rad) and detected with antibodies targeting phosphorylated ALK Y1604 (Cell Signaling Technology), total ALK (Cell Signaling Technology), phosphorylated ROS1 and total ROS1 (Cell Signaling Technology), phosphorylated TRK A/B (Cell Signaling Technology), total TRKA antibody (Santa Cruz Biotechnology), phosphorylated STAT3 and STAT5, total STAT3 and STAT5 (Cell Signaling Technology), phosphorylated AKT (Cell Signaling Technology), total AKT (Cell Signaling Technology), phosphorylated ERK (Cell Signaling Technology), total ERK (Cell Signaling Technology) and Tubulin (Sigma). […]
# paxillin = experiment: Immunoblotting SRC substrate phosphorylation, NCI-H2228 cells; format: cell-based; conditions: Homo sapiens; NCI-H2228 cell line
# Method: NSCLC cell line H2228 (harboring endogenous EML4-ALK fusion gene) was cultured in RPMI medium supplemented with 10% fetal bovine serum and 100 U/mL of penicillin/streptomycin. Ba/F3 and NIH3T3 cells stably expressing ROS1, or TRKA, or TRKB, or TRKC (WT or mutant) were cultured as mentioned above. […] Cells were collected after treatment and lysed in RIPA buffer (50 mM Tris, pH 7.4, 150 mM NaCl, 1% NP-40, 0.5% Deoxycholate, 0.1% SDS) supplemented with 10 mM EDTA, 1× Halt protease and phosphatase inhibitors (Thermo Scientific). Protein lysates (approximately 20 μg) was resolved on 4-12% Bolt Bis-Tris precasted gels with MES running buffer (Life Technologies), transferred to nitrocellulose membranes using Trans-Blot Turbo Transfer System (Bio-Rad) and detected with antibodies targeting phosphorylated phosphorylated ROS1 and total ROS1 (Cell Signaling Technology), phosphorylated TRK A/B (Cell Signaling Technology), total TRKA antibody (Santa Cruz Biotechnology), phosphorylated SRC Y416 (Cell Signaling Technology), total SRC (Cell Signaling Technology), phosphorylated FAK Y576/577 (Cell Signaling Technology), total FAK (Cell Signaling Technology), phosphorylated paxillin Y118 (Cell Signaling Technology), total paxillin (Cell Signaling Technology), phosphorylated EGFR and total EGFR, CD44, and Tubulin (Sigma). […]
# Karpas 299 tumors = experiment: Karpas 299 ALCL subcutaneous xenograft model; format: in vivo, SCID/Beige mice; conditions: 50 mg/kg BID orally, seven days
# NPM-ALK = NPM-ALK (Homo sapiens, UniProt Q9UM73); experiment: In vivo pharmacodynamics: ALK phosphorylation in Karpas 299 tumors (immunoblotting); parameters: species or system mice
# Chain of NPM-ALK (Q9UM73 with tags, fused parts or gaps): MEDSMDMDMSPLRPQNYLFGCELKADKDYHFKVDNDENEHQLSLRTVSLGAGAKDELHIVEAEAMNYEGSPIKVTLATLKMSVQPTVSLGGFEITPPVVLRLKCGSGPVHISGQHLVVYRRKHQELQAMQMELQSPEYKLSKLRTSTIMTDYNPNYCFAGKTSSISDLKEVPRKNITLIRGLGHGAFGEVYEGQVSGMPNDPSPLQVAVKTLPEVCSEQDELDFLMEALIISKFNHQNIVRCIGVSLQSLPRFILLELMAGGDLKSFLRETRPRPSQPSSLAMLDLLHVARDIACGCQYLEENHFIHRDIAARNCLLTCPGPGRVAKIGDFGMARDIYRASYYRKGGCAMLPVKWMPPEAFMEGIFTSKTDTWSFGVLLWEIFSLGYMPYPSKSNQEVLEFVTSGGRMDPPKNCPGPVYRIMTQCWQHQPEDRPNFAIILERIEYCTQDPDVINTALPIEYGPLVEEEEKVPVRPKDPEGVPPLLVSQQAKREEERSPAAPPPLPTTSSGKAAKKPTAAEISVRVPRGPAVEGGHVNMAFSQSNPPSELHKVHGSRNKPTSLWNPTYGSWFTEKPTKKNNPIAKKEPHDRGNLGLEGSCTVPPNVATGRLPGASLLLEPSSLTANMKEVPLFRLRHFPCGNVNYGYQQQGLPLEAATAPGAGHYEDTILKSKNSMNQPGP
# Method: Mice bearing xenograft tumors were humanely euthanized and tumors were resected and snap frozen in liquid nitrogen and stored at −80° C. Frozen tumor samples were processed at 4° C. in 1× Cell Lysis Buffer (Cell Signaling Technologies) to extract proteins. SDS loading samples were prepared by adding one volume of 4×LDS Sample Buffer (Life Technologies, Inc) to three volumes of protein lysate. Tumor SDS protein samples were processed by SDS-PAGE and immunoblotted with rabbit anti-phosphorylated ALK and mouse anti-actin antibodies (Cell Signaling Technologies). The signals from immunoblot were detected by C-DiGit Blot Scanner from LI-COR and the signal intensity were quantified using the Image Studio Digit software (LI-COR).
# The level of ALK phosphorylation was determined by immunoblotting combined with signal quantification by the Image Studio Digit Software. […] At the dose of 15 mg/kg, ALK phosphorylation was reduced to <10% of the control level at 3 hours post oral administration and was maintained at about 21% of the control level at 12 hours post dosing.
# KM12 cell line = experiment: cells; conditions: Homo sapiens, KM12, 72 h, read-out: Cell proliferation of KM12 cell line IC50
# T2 sequence (P14616 27-1297): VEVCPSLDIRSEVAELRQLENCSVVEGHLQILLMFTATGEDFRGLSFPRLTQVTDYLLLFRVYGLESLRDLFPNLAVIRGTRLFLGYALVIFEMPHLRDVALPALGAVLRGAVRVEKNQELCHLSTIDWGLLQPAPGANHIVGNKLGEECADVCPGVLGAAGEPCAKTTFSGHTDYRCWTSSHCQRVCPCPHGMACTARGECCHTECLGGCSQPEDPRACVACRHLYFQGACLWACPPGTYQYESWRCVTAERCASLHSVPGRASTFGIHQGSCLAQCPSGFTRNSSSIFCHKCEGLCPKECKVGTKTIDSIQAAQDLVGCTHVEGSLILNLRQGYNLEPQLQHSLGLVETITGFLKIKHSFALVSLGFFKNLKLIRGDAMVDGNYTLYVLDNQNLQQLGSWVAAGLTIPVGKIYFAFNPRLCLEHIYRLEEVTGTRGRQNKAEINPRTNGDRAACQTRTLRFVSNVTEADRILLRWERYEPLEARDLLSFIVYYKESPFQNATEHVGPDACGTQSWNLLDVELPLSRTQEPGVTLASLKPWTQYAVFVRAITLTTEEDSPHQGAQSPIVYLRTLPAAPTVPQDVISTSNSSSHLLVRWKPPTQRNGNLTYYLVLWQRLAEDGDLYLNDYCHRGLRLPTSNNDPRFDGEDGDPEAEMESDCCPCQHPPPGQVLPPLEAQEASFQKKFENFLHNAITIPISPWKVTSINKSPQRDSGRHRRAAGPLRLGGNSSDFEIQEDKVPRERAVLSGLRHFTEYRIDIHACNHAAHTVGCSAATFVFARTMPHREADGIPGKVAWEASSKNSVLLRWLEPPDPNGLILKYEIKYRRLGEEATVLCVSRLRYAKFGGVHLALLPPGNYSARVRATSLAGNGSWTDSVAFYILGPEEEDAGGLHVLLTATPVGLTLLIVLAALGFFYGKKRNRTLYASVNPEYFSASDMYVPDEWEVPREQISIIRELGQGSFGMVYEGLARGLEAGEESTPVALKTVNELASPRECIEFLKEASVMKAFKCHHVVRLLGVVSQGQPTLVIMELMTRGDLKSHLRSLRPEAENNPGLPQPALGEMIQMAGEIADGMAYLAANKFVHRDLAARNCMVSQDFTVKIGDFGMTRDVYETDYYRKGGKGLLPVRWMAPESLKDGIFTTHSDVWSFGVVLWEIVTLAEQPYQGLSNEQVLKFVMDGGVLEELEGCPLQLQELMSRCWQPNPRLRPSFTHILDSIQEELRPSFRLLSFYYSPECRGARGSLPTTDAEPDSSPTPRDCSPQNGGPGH
# T1 sequence (P42681 whole entry): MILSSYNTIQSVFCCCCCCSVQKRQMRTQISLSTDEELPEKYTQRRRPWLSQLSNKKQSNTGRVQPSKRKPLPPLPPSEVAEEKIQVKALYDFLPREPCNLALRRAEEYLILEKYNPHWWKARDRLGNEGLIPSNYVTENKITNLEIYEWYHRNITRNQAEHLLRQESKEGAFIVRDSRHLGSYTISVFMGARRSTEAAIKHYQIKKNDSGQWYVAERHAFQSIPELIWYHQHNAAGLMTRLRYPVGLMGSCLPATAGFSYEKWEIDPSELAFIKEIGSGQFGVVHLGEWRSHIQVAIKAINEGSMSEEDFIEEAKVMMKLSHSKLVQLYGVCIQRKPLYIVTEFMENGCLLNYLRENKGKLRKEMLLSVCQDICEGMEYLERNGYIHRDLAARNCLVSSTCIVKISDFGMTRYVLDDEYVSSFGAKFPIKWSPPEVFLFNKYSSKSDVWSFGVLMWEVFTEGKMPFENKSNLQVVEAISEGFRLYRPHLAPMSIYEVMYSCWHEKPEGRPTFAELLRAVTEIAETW
compound,measurement,setting,value
"C[C@H]1CNC(=O)c2cnn3ccc(nc23)N[C@H](C)c2cc(F)ccc2O1 [Compound 1, (7S,13R)-11-fluoro-7,13-dimethyl-6,7,13,14-tetrahydro-1,15-ethenopyrazolo[4,3-f][1,4,8,10]benzoxatriazacyclotridecin-4(5H)-one]",IC50,TXK,3.17 nM
same,IC50,IRR,18.1 nM
same,IC50,BTK,23.7 nM
same,IC50,BLK,32.3 nM
same,IC50,HCC78 cell line,0.3 nM
same,IC50,[1],50 nM
same,IC50,STAT5,~158 nM
same,IC50,paxillin,~103 nM
same,mice exhibiting tumor regression,Karpas 299 tumors,4 of 8
same,"ALK phosphorylation, % of the control level","NPM-ALK; 15 mg/kg BID 7 days, 3 hours post oral administration",< 10%
same,"ALK phosphorylation, % of the control level","NPM-ALK; 15 mg/kg BID 7 days, 12 hours post dosing",about 21%
same,"ALK phosphorylation, % of the control level","NPM-ALK; 50 mg/kg BID 7 days, 3 hours post oral administration",< 5%
same,"ALK phosphorylation, % of the control level","NPM-ALK; 50 mg/kg BID 7 days, 12 hours post dosing",about 10%
same,IC50,KM12 cell line,0.3 nM

# From US11452725B2, “Chiral diaryl macrocycles and uses thereof” (TURNING POINT THERAPEUTICS, INC., priority 2015, dated 2022)
